How the values were obtained:
[1] = Differential scanning calorimetry (DSC), glass transition temperature; format: physicochemical; settings: neat substance (not a solid solution)
Description: DSC curves were measured with a Pyris 1 (Perkin Elmer) device. The sample charge was 3-4 mg, heating rate 10 °C/min. Nitrogen was used as a carrier gas (20 ml/min).
The products were characterized by XRPD and DSC analysis.
In all cases the Tg values were higher for solid solution of 1:2 ratio than those for 1:1 ratio. Therefore, the 1:2 API to polymer ratio was able to form more physically stable solid solutions. It is known that the physical stability of the solid solution is increased with a higher glass transition temperature (Hancock and Zografi, 1997).

[2] = low solubility, low permeability; cited from earlier work

CCCSc1nc(N[C@@H]2C[C@H]2c2ccc(F)c(F)c2)c2nnn([C@@H]3C[C@H](OCCO)[C@@H](O)[C@H]3O)c2n1 [Amorphous ticagrelor, (1S,2S,3R,5S)-3-[7-[(1R,2S)-2-(3,4-Difluorophenyl)cyclopropylamino]-5-(propylthio)-3H-[1,2,3]triazolo[4,5-d]pyrimidin-3-yl]-5-(2-hydroxyethoxy)cyclopentane-1,2-diol]
glass transition temperature (Tg) [1]: about 46 °C

CCCSc1nc(N[C@@H]2C[C@H]2c2ccc(F)c(F)c2)c2nnn([C@@H]3C[C@H](OCCO)[C@@H](O)[C@H]3O)c2n1 [ticagrelor, (1S,2S,3R,5S)-3-[7-[(1R,2S)-2-(3,4-Difluorophenyl)cyclopropylamino]-5-(propylthio)-3H-[1,2,3]triazolo[4,5-d]pyrimidin-3-yl]-5-(2-hydroxyethoxy)cyclopentane-1,2-diol]
Biopharmaceutical Classification System (BCS) class [2]: class IV
